According to patent publication US8980914B2, “Therapeutic agent for chronic obstructive pulmonary disease and method for treatment for chronic obstructive pulmonary disease with the same” (Mariposa Health Limited, priority 2003, dated 2015):

Test system: airway hyper-responsiveness induced by ozone
Test: Airway hyper-responsiveness model induced by inhalation of ozone in guinea pigs (lung resistance after methacholine)
Assay type: in vivo
Conditions: theophylline 100 mg/kg one hour before ozone inhalation, RLung after methacholine inhalation 5 hours after end of ozone exposure
Protocol: This test was performed so as to evaluate the pharmacological effect of the 7-aminoquinolinone derivatives of the present invention in an airway hyper-responsiveness model induced by inhalation of ozone in guinea pigs. The test procedure will now be described.
Guinea pigs were fasted for 18 hours or more. The animals were administered the test substance (30 mg/kg) and theophylline (100 mg/kg) one hour before ozone inhalation. For the non-stimulation group and the vehicle control group, vehicle (5 mL/kg) was administered similarly.
The animals were put into an acryl-made chamber (29×19×25 cm), subjected to induction of ozone generated by an ozonizer (EUV3-XU; EBARA JITSUGYO CO, LTD.) and exposed for 2 hours. The ozone concentration in the chamber was approximately 3 ppm. It was confirmed every 30 minutes that this concentration was maintained during exposure by an ozone monitor (EG-5000; EBARA JITSUGYO CO, LTD.) (measured value: 2.53 to 3.40 ppm). For the non-stimulation group, the animals were exposed to a mixed gas (oxygen: 95%, carbonic acid gas: 5%) similarly. The ozone concentration at that time was also confirmed similarly (acceptable concentration: 0.01 ppm or less, measured value: 0.00 to 0.01 ppm).
The measurement of airway hyper-responsiveness was performed 5 hours after the end of ozone exposure. The measurement of lung resistance (RLung) was performed according to the method of R. E. Giles et al. in the same manner as in Example 2. That is, the animals were anesthetized with Nembutal (Trade name: 50 mg/kg, i.p., sodium pentobarbital) and subjected to cannulation into esophagus and trachea. The esophagus and trachea cannulas were connected to a respirator (ventilation volume: 6 mL/kg, ventilation frequency: 60 times/min, SN-480-7) and the RLung after inhalation of methacholine (100 μg/mL, for 1.5 minutes) was measured by the respiratory function analyzer (PULMOS-II; M.I.P.S) through a flow sensor (connected to Validyle DF45F (for flow rate) and DP45P (for pressure)). The inhalation of methacholine was performed with an ultrasonic nebuliser (NE-U17; Omron Matsuzaka) connected to the respirator under artificial respiration.
Used RLung represents 10 breaths having a stable value in a range from 1 to 30 breaths after initiation of each measurement for both before inhalation and during methacholine inhalation. The average of the RLung was calculated. The extreme values in RLung that occurred when animal moved during the measurement were excluded from the calculations.
The percentage of increase of RLung was calculated by the following equation. Increase in lung resistance (%)=([RLung after inhalation of methacholine]−[RLung before administration])/[RLung before administration]×100

## Cn1c(=O)c2[nH]cnc2n(C)c1=O [theophylline, reference compound]
  Increase in lung resistance (%): 26%
